We go through 21 compounds from US11773127B2, “Compounds and methods for treating bacterial infections” (Washington University, priority 2017, dated 2023).

The test has as its target T1, FmlHLD (Escherichia coli, UniProt P77588).
T1 construct: 6xHis (C); made in house; host or cells: E. coli C600, periplasm, pTRC99a
Briefly: biochemical. It is filed as binding, E. coli. As to conditions: for inhibitory potency against FmlH, in words: ELISA-based competition assay; for inhibition at 10 µM: read-out: PI10 (percent inhibition), galactoside at 10 μM; for PI100 (percent inhibition): galactoside at 100 μM, 100 µM. As to the method: Thereafter, wells were incubated with 200 μl blocking buffer (PBS+1% BSA) for 2 hours at 23° C., followed by incubation with 100 μl biotinylated FmlHLD diluted in blocking buffer to 20 μg/ml in the presence or absence of the tested compounds for 1 hr at 23° C. After washing 3× with PBS+0.05% TWEEN-20, 100 μl Streptavidin-HRP conjugate (BD Biosciences; 1:2000 dilution in blocking buffer) was added to each well for 1 hr at 23° C. After a final round of washing, plates were developed with 100 μl Tetramethylbenzidine (TMB, BD Biosciences) substrate, quenched within 1-2 min with 50 μl […], and absorbance measured at 450 nm.
Select top hit compounds and few low-scoring analogs from the virtual screening, as well as synthetic galactosides, were tested in the ELISA-based competition assay for their ability to inhibit binding of FmlHLD to ds-BSM. The ELISA assay was performed using the protocol described in Example 18. […] All compounds were tested at 100 μM; a subset was tested at 10 μM; and the strongest subset was additionally tested at 1 μM. […] Percent inhibition (PI) values are reported as the mean with standard error of the mean for galactosides tested at 100 μM (PI100), 10 μM (PI10), and 1 μM (PI1) in the ELISA-based competition assay. […] The “thio” designation indicates a sulfur linkage between the sugar and the aglycone group, the “phospho” designation indicates a phosphate group attached the C6-hydroxyl group on the sugar, and the “uro” designation indicates galacturonide as the sugar.
The ELISA assay was performed using the protocol described in Example 18. All compounds were tested at 1 μM and a subset was additionally tested at 100 nM. Average percent inhibition (PI) values are reported for compounds tested at 1 μM (PI1) and 100 nM (PI0.1).
Briefly, 1 μg bovine submaxillary mucin (Sigma) in 100 uL PBS were incubated with Immulon 4HBX 96-well plates overnight prior to treatment with 1 mU Arthrobacter ureafaciens sialidase for 1 hour at 37° C. to remove terminal sialic acid sugars. Wells were then blocked with 200 μL PBS+1% BSA for 2 hours at room temperature. Biotinylated FmlH^LD was diluted to 20 μg/mL in blocking buffer and incubated in the presence or absence of compounds serially diluted 2× down eight rows for 1 hour at room temperature. Wells were washed three times with PBS 0.05% TWEEN-20 then incubated with 100 μL of streptavidin-HRP conjugate (BD Biosciences; 1:2,000 dilution in blocking buffer) for one hour. After three additional PBS+0.05% TWEEN washes, plates were developed with 100 μL of tetramethylbenzidine (BD Biosciences) substrate and quenched with 50 μL of 1 M H2SO4. Total bound portion concentration was measured by the absorbance at 450 nm. IC50s were determined using the Graphpad Prism software.
The compounds synthesized herein were tested in the ELISA-based competition assay for their ability to inhibit binding of FmlHLD to ds-BSM. The ELISA assay was performed using the protocol described in Example 18. Compounds were tested at […], 1 μM, and 100 nM. as indicated on the table. […] ND means the corresponding value was not determined for this summary (but may be available elsewhere in the Examples).
(ELISA stands for enzyme-linked immunosorbent assay.)

Where [1] appears, read: IC50, inhibition of FmlHLD binding to ds-BSM.
The mark [2] stands for this setting: read-out: % Inhibition at [μM] [1], compound at 1 μM, inhibition of FmlHLD binding to ds-BSM.
The mark [3] stands for this setting: read-out: PI(1) (average percent inhibition), compound at 1 μM, Table 4.
Where [4] appears, read: IC50 (μM), Table 5, Gal and GalNAc inhibition of FmlH.
[5] abbreviates: read-out: % Inhibition at [μM] [0.1], compound at 0.1 μM (100 nM), inhibition of FmlHLD binding to ds-BSM.
The mark [6] stands for this setting: read-out: PI (0.1) (average percent inhibition), compound at 100 nM, Table 4.
Setting [7] is: mean with standard error of the mean.
Setting [8] is: read-out: PI100 (percent inhibition), galactoside at 100 μM, mean with standard error of the mean.
[9] abbreviates: read-out: % Inhibition at [μM] [100], compound at 100 μM, inhibition of FmlHLD binding to ds-BSM.
[10] abbreviates: read-out: PI1 (percent inhibition), galactoside at 1 μM, mean with standard error of the mean.
Where [11] appears, read: IC50 (μM), Table 6, sulfonamides 3078-3090.

Each structure is given as a SMILES string. Where two headings read alike, the source gives them in different places.

T1 sequence (P77588 25-182): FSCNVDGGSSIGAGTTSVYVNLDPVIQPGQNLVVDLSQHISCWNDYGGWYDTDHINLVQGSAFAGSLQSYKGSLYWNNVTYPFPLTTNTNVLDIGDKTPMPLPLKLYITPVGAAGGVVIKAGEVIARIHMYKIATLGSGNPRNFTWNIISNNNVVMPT

For orientation: IC50 means the concentration needed to halve the response being measured. The compound `CC(=O)N[C@H]1[C@H](Oc2ccccc2-c2cccc(NC(=O)C(F)(F)F)c2)O[C@H](CO)[C@H](O)[C@@H]1O` [AM2101] showed an IC50 under setting [1] of 1.02 µM.
The inhibition is the relative decrease from the control value, in per cent. On to `CC(=O)N[C@H]1[C@H](Oc2cccc3ccc(C)nc23)O[C@H](CO)[C@H](O)[C@@H]1O` [AM1179, N-((2S,3R,4R,5R,6R)-4,5-dihydroxy-6-(hydroxymethyl)-2-((2-methylquinolin-8-yl)oxy)tetrahydro-2H-pyran-3-yl)acetamide], for which the inhibition at 1 µM runs as follows: under setting [2], 25.2%; under setting [3], 25.2%.
Turning to `COC(=O)Nc1cccc(-c2ccccc2O[C@@H]2O[C@H](CO)[C@H](O)[C@H](O)[C@H]2NC(C)=O)c1` [AM2065, methyl (2′-(((2S,3R,4R,5R,6R)-3-acetamido-4,5-dihydroxy-6-(hydroxymethyl)tetrahydro-2H-pyran-2-yl)oxy)-[1,1′-biphenyl]-3-yl)carbamate], the “inhibitory potency against FmlH, in words” value (from here on “inhibitory potency”) was “equal or slightly reduced potency”. The same compound had a 50% inhibitory concentration (IC50) under setting [4] of 0.63 µM. For the same compound, the IC50 under setting [1] was determined as 1.05 µM. Further, the inhibition at 0.1 µM under setting [5] was 0%. For the same compound, the inhibition at 1 µM under setting [2] turned out to be 45.3%. Under setting [6], the inhibition at 0.1 µM turned out to be 0%. The inhibition at 1 µM under setting [3] was determined as 45.3%.
On to `OC[C@H]1O[C@@H](SCCc2ccccc2)[C@H](O)[C@@H](O)[C@H]1O` [Compound 22β-thio], for which the inhibition at 10 µM under setting [7] was found to be 2.3 ± 2.5%. For the same compound, the inhibition at 100 µM under setting [8] was 49.8 ± 2.5%.
On to `OC[C@H]1O[C@@H](Oc2cccc3ccccc23)[C@H](O)[C@@H](O)[C@H]1O` [Compound 115af2], for which the inhibition at 100 µM under setting [9] worked out at 45.9%.
For `N#Cc1ccccc1O[C@@H]1O[C@H](CO)[C@H](O)[C@H](O)[C@H]1O` [Compound 3β, 2-cyanophenyl α/β-D-galactopyranoside], under setting [7], the “PI100 (percent inhibition)” value is 94.5 ± 0.3% and the inhibition at 10 µM stood at 30.4 ± 1.8%. For the same compound, the inhibition at 1 µM under setting [10] turned out to be 12.1 ± 6.3%. In addition, the inhibition at 100 µM under setting [8] turned out to be 95%.
Regarding `CC(=O)N[C@@H]1[C@H](Oc2cccc(C)c2-c2cccc(NS(=O)(=O)N(C)C)c2)OC(CO)[C@H](O)[C@@H]1O` (stereo partly drawn) [Compound 3087, N-((2S,3S,4R,5R)-2-((3′-((N,N-dimethylsulfamoyl)amino)-6-methyl-[1,1′-biphenyl]-2-yl)oxy)-4,5-dihydroxy-6-(hydroxymethyl)tetrahydro-2H-pyran-3-yl)acetamide], the “inhibitory potency” value is given as “retain the same activity as the methyl sulfonamides”. In addition, under setting [11], the half-maximal inhibitory concentration (IC50) was found to be 0.13 µM.
As to `OC[C@H]1O[C@H](Oc2ccc(-c3ccccc3)cc2)[C@H](O)[C@@H](O)[C@H]1O` [Compound 32α, [1,1′-biphenyl]-4-yl α/β-D-galactopyranoside], under setting [7], the inhibition at 10 µM came to 22.6 ± 3.9%. Also, the inhibition at 100 µM under setting [8] is 86.5 ± 1.7%.
Consider `Cc1c(C)c2ccc(O[C@@H]3O[C@H](CO)[C@H](O)[C@H](O)[C@H]3O)cc2oc1=O` [Compound 14β], for which, under setting [7], the “PI100 (percent inhibition)” value came out at 89.2 ± 0.4% and the inhibition at 10 µM is 19.8 ± 3.8%. Besides, the inhibition at 1 µM under setting [10] was determined as 10.2 ± 4.3%. Moreover, under setting [8], the inhibition at 100 µM was 89%.
`CC(=O)N[C@H]1[C@H](Oc2cccc3cc4ccccc4nc23)O[C@H](CO)[C@H](O)[C@@H]1O` [AM2003, N-((2S,3R,4R,5R,6R)-2-(acridin-4-yloxy)-4,5-dihydroxy-6-(hydroxymethyl)tetrahydro-2H-pyran-3-yl)acetamide]: the inhibition at 1 µM reads like this: under setting [2], 15.4%; under setting [3], 15.4%.
On to `CC(=O)Nc1cccc(-c2ccccc2O[C@@H]2O[C@H](CO)[C@H](O)[C@H](O)[C@H]2NC(C)=O)c1` [AM2062, N-(2′-(((2S,3R,4R,5R,6R)-3-acetamido-4,5-dihydroxy-6-(hydroxymethyl)tetrahydro-2H-pyran-2-yl)oxy)-[1,1′-biphenyl]-3-yl)acetamide], for which the IC50 stood at 0.31 µM under setting [4] and 0.623 µM under setting [1]. Besides, the inhibition at 0.1 µM runs as follows: under setting [5], 14.8%; under setting [6], 14.8%. In addition, the inhibition at 1 µM turned out to be 67.9% under setting [2] and 67.9% under setting [3].
In the case of `COc1ccc(C(=O)O)cc1-c1ccccc1O[C@@H]1O[C@H](CO)[C@H](O)[C@H](O)[C@H]1NC(C)=O` [AM2051], the inhibition at 0.1 µM under setting [5] was 0%. Besides, the inhibition at 1 µM under setting [2] was 15.9%.
Regarding `N#Cc1ccccc1O[C@H]1O[C@H](CO)[C@H](O)[C@H](O)[C@H]1O` [Compound 3α, 2-cyanophenyl α/β-D-galactopyranoside], under setting [8], the inhibition at 100 µM worked out at 17.8 ± 6.3%.
On to `CC(=O)N[C@H]1[C@H](Oc2cccc3ccncc23)O[C@H](CO)[C@H](O)[C@@H]1O` (stereo in doubt) [AM1186], for which the inhibition at 1 µM turned out to be 23.5% under setting [2] and 23.5% under setting [3].
The compound `Cc1cccc(O[C@@H]2O[C@H](CO)[C@H](O)[C@H](O)[C@H]2NS(C)(=O)=O)c1-c1cccc(NS(C)(=O)=O)c1` [Compound 3089, N-((2S,3R,4R,5R,6R)-4,5-dihydroxy-6-(hydroxymethyl)-2-((6-methyl-3′-(methylsulfonamido)-[1,1′-biphenyl]-2-yl)oxy)tetrahydro-2H-pyran-3-yl)methanesulfonamide] came in with an IC50 under setting [11] of 3.5 µM.
Turning to `CNC(=O)c1cccc(-c2ccccc2O[C@@H]2O[C@H](CO)[C@H](O)[C@H](O)[C@H]2NC(C)=O)c1` [AM1189, 2′-(((2S,3R,4R,5R,6R)-3-acetamido-4,5-dihydroxy-6-(hydroxymethyl)tetrahydro-2H-pyran-2-yl)oxy)-N-methyl-[1,1′-biphenyl]-3-carboxamide], the “inhibitory potency” value is recorded as “equal or slightly reduced potency”. Further, the IC50 under setting [4] was determined as 3.36 µM. The inhibition at 1 µM under setting [2] stood at 12.3%. For the same compound, the inhibition at 1 µM under setting [3] worked out at 12.3%.
Take `CC(=O)N[C@H]1[C@H](Oc2ccc3cccnc3c2)O[C@H](CO)[C@H](O)[C@@H]1O` [AM1180, N-((2S,3R,4R,5R,6R)-4,5-dihydroxy-6-(hydroxymethyl)-2-(quinolin-7-yloxy)tetrahydro-2H-pyran-3-yl)acetamide]: the inhibition at 1 µM came out at 15.4% under setting [2] and 15.4% under setting [3].
For `OC[C@H]1O[C@H](Oc2cccc3ccccc23)[C@H](O)[C@@H](O)[C@H]1O` [Compound 115af1], under setting [9], the inhibition at 100 µM amounted to 28.1%.
As to `Cc1cc(=O)oc2cc(O[C@@H]3O[C@H](CO)[C@H](O)[C@H](O)[C@H]3O)ccc12` [Compound 12β], under setting [7], the “PI100 (percent inhibition)” value turned out to be 85.3 ± 0.7% and the inhibition at 10 µM was 19.7 ± 4.2%. Further, the inhibition at 1 µM under setting [10] came out at 8.7 ± 3.1%. The inhibition at 100 µM under setting [8] worked out at 85%.
One may read the % Inhibition as how much of the control response was suppressed. A lower % Inhibition goes with a weak effect. On to `CC(=O)N[C@H]1[C@@H](Oc2ccc([N+](=O)[O-])cc2)O[C@H](CO)[C@H](O)[C@@H]1O` [PNP-aGalNAc, reference compound], for which the “% Inhibition at [μM] [10]” value (compound at 10 μM, inhibition of FmlHLD binding to ds-BSM) is listed as 6.29%. In addition, the “% Inhibition at [μM] [100]” value (compound at 100 μM, inhibition of FmlHLD binding to ds-BSM) amounted to 82.04%.
Under setting [11], `CC(=O)N[C@H]1[C@H](Oc2cccc([N+](=O)[O-])c2-c2cccc(NS(C)(=O)=O)c2)O[C@H](CO)[C@H](O)[C@@H]1O` [Compound 3078, N-((2S,3R,4R,5R,6R)-4,5-dihydroxy-6-(hydroxymethyl)-2-((3′-(methylsulfonamido)-6-nitro-[1,1′-biphenyl]-2-yl)oxy)tetrahydro-2H-pyran-3-yl)acetamide] had a 50% inhibitory concentration (IC50) of 0.11 µM.
